Calls of active or inactive are those of the source.
Columns and labels:
[1] = molecular target: T1, Heat shock factor protein 1 (Mus musculus, UniProt P38532); assay: HSF1 potentiators in luciferase reporter cells, confirmation, cell-based, NIH3T3, luminescence, dose retest (AID 435004); type: functional;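 further: stress induced by proteasome inhibitor MG132 added 30 min after compound; luciferase reporter driven by HSF1 response element in NIH3T3 cells; actives raise luminescence as potentiators of the MG132 stress response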
T1 sequence (P38532 whole entry): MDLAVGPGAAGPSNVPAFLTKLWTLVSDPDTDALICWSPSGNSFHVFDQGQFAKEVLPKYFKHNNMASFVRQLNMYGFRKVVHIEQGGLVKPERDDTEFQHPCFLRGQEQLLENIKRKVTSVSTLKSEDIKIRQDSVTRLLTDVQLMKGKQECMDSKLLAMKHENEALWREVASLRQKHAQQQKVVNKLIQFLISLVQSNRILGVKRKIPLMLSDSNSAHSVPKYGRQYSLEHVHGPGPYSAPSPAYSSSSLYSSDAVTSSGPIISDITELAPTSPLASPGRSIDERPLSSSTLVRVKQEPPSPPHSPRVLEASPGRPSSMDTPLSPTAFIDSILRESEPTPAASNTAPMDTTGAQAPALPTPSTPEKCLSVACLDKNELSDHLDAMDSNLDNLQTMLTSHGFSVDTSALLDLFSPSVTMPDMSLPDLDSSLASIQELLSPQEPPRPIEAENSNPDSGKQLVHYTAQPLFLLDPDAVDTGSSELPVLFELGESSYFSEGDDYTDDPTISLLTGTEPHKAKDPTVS

[2] = Luminescence Cell-Based Dose Confirmation HTS to Identify Activators of 5'UTR Stem-Loop Driven Alpha-Synuclein mRNA Translation in H4 Neuroglioblastoma Cells. [Related pubchem assays: 1829 (Project Summary), 1814 (Primary HTS)]; type: functional
H4 = assay: Luminescence Cell-Based Dose Response HTS to Identify Activators of 5'UTR Stem-Loop Driven Prion Protein mRNA Translation in H4 Neuroglioblastoma Cells. [Related pubchem assays: 1829 (Project Summary), 1814 (Primary HTS)]; type: functional; conditions: Homo sapiens
[3] = Luminescence Cell-Based Dose Response HTS to Identify Activators of Luciferase Translation or Activity in H4 […] Cells. [Related pubchem assays: 1829 (Project Summary), 1814 (Primary HTS)]; type: functional
[4] = molecular target: T2, RNA-binding protein pos-1 (Caenorhabditis elegans, UniProt G5EF15); assay: inhibitors of POS-1/mex-3 RNA binding, dose response, biochemical, fluorescence polarization (AID 1964);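 further: purified POS-1 fused to maltose binding protein made in E. coli; potency of compounds blocking POS-1 binding to fluorescent RNA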
T2 sequence (G5EF15 whole entry): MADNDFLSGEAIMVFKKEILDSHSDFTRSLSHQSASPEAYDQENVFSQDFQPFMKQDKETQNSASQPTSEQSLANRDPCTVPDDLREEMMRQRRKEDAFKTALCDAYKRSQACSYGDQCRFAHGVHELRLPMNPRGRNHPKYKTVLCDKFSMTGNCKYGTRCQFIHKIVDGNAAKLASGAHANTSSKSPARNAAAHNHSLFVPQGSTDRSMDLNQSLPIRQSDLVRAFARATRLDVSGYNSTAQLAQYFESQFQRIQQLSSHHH

[5] = molecular target: T3, Zinc finger protein mex-5 (Caenorhabditis elegans, UniProt Q9XUB2); assay: MEX-5/TCR-2 RNA interaction inhibitors, dose response, biochemical, C. elegans, fluorescence polarization (AID 1960)
T3 sequence (Q9XUB2 whole entry): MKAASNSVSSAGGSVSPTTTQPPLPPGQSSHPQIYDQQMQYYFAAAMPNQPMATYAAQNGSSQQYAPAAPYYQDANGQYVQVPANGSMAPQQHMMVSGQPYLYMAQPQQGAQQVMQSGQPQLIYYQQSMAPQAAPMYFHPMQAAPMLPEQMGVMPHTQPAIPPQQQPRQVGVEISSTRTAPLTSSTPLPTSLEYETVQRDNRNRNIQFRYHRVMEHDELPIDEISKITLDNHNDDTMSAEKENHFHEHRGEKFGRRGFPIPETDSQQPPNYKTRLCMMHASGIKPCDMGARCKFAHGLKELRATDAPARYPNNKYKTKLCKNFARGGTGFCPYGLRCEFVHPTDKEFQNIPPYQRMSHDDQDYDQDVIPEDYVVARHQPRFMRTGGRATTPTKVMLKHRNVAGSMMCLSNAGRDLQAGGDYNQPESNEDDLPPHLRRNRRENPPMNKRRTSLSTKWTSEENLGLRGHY

[6] = cytotoxicity toward NIH3T3 fibroblasts, dose response, counter-screen, cell-based, ATP luminescence, mouse fibroblasts (AID 2010); type: functional;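 further: cells exposed to compound for about 90 hours before reading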
[7] = inhibitors of intracellular T. cruzi replication, confirmation, NIH3T3 host cells, beta-gal luminescence (AID 2044); type: functional, cell-based;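 further: intracellular parasites grown in NIH/3T3 mouse fibroblasts as host cells; luminescent beta-galactosidase reporter signal from transgenic T. cruzi replicating inside host cells; inhibitors lower the luminescence signal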
[8] = HEp-2 cell cytotoxicity, dose response, cytotoxicity control for RSV inhibitor project, HTS (AID 2410); type: functional; conditions: human respiratory syncytial virus
Large T antigen = Large T antigen (Simian virus 40, UniProt P03070); type: functional, Betapolyomavirus macacae;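 further: Confirmatory-stage PubChem screen for compounds that inhibit SV40 T antigen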
Cytochrome P450 2C19 = Cytochrome P450 2C19 (Homo sapiens, UniProt P33261); assay: Cytochrome panel assay with activity outcomes. Panel member name: p450-cyp2c19 Compounds with AC50 equal or less than 10 uM are considered active; type: functional; conditions: read-out: AC50
[9] = molecular target: T1, Heat shock factor protein 1; assay: inhibition of MG132-induced HSE-luciferase signal, confirmation, cell-based, NIH3T3, luminescence, dose retest (AID 2382); type: functional;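 further: NIH3T3 fibroblasts with HSF1-driven luciferase reporter stressed by proteasome inhibitor MG132; luminescence from HSF1-driven luciferase expression after 8 hours of MG132 stress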
[10] = molecular target: T4, Rac GTPase-activating protein 1 (Homo sapiens, UniProt Q9H0H5); assay: MgcRacGAP GTPase-activating activity inhibitors, confirmation, biochemical, ADP Hunter fluorescence, primary and confirmatory (AID 624330); type: functional
T4 sequence (Q9H0H5 whole entry): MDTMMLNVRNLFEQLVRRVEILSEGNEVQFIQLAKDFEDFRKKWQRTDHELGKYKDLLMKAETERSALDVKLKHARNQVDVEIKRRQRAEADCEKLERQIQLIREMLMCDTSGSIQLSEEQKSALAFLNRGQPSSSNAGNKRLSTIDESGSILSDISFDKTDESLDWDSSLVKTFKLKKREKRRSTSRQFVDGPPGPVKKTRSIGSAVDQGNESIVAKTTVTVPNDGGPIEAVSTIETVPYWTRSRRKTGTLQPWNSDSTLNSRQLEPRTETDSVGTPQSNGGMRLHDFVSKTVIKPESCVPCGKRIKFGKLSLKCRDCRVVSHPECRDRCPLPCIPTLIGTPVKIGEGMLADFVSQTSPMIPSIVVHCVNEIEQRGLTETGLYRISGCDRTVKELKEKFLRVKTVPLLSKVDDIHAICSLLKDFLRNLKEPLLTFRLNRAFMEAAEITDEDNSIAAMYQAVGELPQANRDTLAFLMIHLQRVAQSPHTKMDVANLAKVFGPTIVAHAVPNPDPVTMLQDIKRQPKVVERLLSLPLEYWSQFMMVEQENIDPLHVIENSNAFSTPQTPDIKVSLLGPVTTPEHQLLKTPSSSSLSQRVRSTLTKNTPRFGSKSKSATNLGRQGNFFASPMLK

Sequence of Large T antigen (P03070 whole entry): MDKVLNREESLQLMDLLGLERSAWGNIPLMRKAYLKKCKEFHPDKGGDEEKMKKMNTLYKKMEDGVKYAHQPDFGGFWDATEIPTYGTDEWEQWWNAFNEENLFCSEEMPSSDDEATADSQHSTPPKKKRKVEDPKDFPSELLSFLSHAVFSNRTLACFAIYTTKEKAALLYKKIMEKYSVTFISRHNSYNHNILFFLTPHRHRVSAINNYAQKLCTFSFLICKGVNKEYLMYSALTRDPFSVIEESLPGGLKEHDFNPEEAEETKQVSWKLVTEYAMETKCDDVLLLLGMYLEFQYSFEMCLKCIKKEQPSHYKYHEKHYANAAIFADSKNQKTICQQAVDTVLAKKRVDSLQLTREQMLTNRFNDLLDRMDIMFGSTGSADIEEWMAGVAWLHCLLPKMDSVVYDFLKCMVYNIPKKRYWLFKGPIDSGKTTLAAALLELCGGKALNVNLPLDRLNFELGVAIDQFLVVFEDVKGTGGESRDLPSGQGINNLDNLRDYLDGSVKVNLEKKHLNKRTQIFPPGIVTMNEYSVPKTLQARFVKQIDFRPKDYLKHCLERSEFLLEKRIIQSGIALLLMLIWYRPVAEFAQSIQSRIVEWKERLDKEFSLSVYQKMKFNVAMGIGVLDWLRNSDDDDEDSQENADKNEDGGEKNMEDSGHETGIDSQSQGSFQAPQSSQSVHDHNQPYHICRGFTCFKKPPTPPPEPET
Sequence of Cytochrome P450 2C19 (P33261 whole entry): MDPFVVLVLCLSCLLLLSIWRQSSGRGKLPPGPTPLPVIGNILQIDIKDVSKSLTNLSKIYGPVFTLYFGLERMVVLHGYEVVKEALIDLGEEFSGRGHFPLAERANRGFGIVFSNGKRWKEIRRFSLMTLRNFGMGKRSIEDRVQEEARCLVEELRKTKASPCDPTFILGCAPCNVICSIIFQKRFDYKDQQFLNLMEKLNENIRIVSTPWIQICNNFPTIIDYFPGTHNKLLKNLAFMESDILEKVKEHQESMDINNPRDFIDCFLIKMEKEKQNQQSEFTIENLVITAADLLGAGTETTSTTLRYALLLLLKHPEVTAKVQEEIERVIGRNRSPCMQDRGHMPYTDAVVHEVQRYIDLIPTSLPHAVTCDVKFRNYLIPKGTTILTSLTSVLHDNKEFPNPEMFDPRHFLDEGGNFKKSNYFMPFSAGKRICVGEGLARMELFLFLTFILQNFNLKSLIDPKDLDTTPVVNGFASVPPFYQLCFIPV

## Cc1ccc(C)c(Cn2nnc3c(=O)[nH]c(C4CCN(C(=O)c5cccs5)CC4)nc32)c1
[1]
  EC50: > 260 µM (inactive)

## Cc1ccc(CCNC(=O)C2CCN(S(=O)(=O)c3ccc4c(c3)NC(=O)CO4)CC2)cc1
[1]
  EC50: > 260 µM (inactive)

## CN1C(=O)NC(c2cccc(O)c2)C(C(=O)c2cccs2)C1(O)C(F)(F)F (stereo not drawn)
[2]
  EC50: > 120 µM (not active)
H4
  EC50: 3.94 µM (active)
[3]
  EC50: > 120 µM (not active)

## O=C(O)C1OC(Oc2cc3oc(-c4ccccc4)cc(=O)c3c(O)c2O)C(O)C(O)C1O (stereo not drawn)
[4]
  EC50: 27.2 µM (active)
[5]
  EC50: 11.9 µM (active)

## CC1(C)CC(=O)c2sc(NC(=O)C3COc4ccccc4O3)nc2C1 (stereo not drawn)
[2]
  EC50: > 120 µM (not active)
H4
  EC50: > 120 µM (not active)
[3]
  EC50: 15.9 µM (active)

## COC(=O)c1cnc(N2CCCN(S(=O)(=O)c3ccc(C(F)(F)F)cc3)CC2)nc1C(F)(F)F
[6]
  EC50: > 60 µM (not active)
[7]
  EC50: 3.03 µM (active)
[1]
  EC50: > 260 µM (inactive)

## CN(C)c1ccc(C(C[N+](=O)[O-])c2c(N)n(C)c(=O)n(C)c2=O)c(F)c1C#N (stereo not drawn)
[1]
  EC50: > 260 µM (inactive)

## O=[N+]([O-])c1ccc(/C=N/N=C(/Nc2ccccn2)c2ccccn2)cc1
[2]
  EC50: > 60 µM (not active)
H4
  EC50: > 120 µM (not active)
[3]
  EC50: > 120 µM (not active)

## Cc1nnc(SCc2ccccc2)n1CC1CCCO1 (stereo not drawn)
Large T antigen
  IC50: > 100 µM (active)

## COCC/N=C1/Sc2nc3c(C)cccc3cc2CN1Cc1ccco1
Large T antigen
  IC50: 67.5 µM (active)
Cytochrome P450 2C19
  AC50: 2.51 µM (inconclusive)
[8]
  CC50: 39.2 µM (active)

## Cc1cccc(/C=N/c2sc3c(c2C#N)CCN(Cc2ccccc2)C3)c1O
[2]
  EC50: 15.2 µM (active)
H4
  EC50: 20.2 µM (active)
[3]
  EC50: 30.1 µM (active)

## Cc1cccc(N2C(=O)C3C(c4ccccc4)OC4(C(=O)c5ccccc5C4=O)C3C2=O)c1 (stereo not drawn)
[2]
  EC50: > 120 µM (not active)
H4
  EC50: > 120 µM (not active)
[3]
  EC50: > 120 µM (not active)

## CC1Oc2ccccc2N(CC(=O)NCc2ccccc2)C1=O (stereo not drawn)
[9]
  EC50: > 195 µM (not active)

## COc1ccc(CCNC(=O)c2cccc([N+](=O)[O-])c2)cc1OC
[9]
  EC50: 2.26 µM (active)

## CC(=O)Nc1ccc(C2=NN(Cc3nnc(-c4ccccc4)o3)C(=O)SC2)cc1
[1]
  EC50: > 260 µM (inactive)

## COc1ccc(/C=N/Nc2nc(N3CCCC3)nc(N3CCCC3)n2)cc1O
[10]
  IC50: 62.2 µM (active)
Large T antigen
  IC50: 10.2 µM (active)

## Cc1nc2sccn2c(=O)c1S(=O)(=O)Nc1ccc(N2CCOCC2)c(Cl)c1
[9]
  EC50: 92.2 µM (active)

## CCOc1ccc2nc(N3CCOCC3)nc(C)c2c1
[2]
  EC50: 32 µM (active)
[3]
  EC50: 0.256 µM (active)

## COc1cccc2c(N/N=C/c3ccc(O)c(O)c3)cc(C)nc12
Large T antigen
  IC50: 23.8 µM (active)
